Results: US20070249670A1, “Glycogen Phosphorylase Inhibitor Compounds and Pharmaceutical Compositions Thereof” (SMITHKLINE BEECHAM CORPORATION, priority 2004, published 2007)
Structures can show the parent of a compound that is named as a salt.

Target: T1, human liver glycogen phosphorylase a (HLGPa) (Homo sapiens, UniProt P06737)
T1 construct: creating a full-length cDNA fused at the 5′ end to codons for methionine-glycine-alanine-histidine; 6xHis tag (leader Met-Gly-Ala-His6-Gly-Gly) (N); made in house; host or cells: E. coli (bacterial expression plasmid pTXK1007LTev)
T1 sequence (P06737 2-847 limits assumed): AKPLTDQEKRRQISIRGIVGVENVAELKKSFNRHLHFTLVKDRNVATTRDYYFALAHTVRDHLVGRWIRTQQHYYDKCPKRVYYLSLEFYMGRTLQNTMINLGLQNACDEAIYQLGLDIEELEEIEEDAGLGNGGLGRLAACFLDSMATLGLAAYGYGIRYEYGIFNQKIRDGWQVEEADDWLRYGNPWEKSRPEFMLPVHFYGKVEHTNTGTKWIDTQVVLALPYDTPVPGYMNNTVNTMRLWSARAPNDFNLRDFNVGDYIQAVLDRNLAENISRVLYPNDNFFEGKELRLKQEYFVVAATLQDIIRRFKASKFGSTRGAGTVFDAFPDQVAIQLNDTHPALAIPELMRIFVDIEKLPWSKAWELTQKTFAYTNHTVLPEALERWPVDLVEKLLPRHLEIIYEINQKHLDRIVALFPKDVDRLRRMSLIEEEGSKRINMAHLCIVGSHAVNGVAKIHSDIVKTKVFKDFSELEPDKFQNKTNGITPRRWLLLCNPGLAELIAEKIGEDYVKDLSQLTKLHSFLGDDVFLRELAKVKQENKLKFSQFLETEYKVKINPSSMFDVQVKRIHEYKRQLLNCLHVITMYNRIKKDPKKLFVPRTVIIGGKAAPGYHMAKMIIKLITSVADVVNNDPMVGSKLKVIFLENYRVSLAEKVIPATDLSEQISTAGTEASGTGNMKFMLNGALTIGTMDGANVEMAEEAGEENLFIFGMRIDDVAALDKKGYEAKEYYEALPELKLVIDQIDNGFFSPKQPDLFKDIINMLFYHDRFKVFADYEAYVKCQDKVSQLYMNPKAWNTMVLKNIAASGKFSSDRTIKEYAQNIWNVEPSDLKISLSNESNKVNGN
Test: Human liver glycogen phosphorylase a enzymatic activity assay (coupled, fluorescent resorufin readout, with and without 10 mM glucose)
Format: biochemical

[1] = human liver glycogen phosphorylase a enzymatic activity assay
[2] = human liver glycogen phosphorylase a, table does not say whether with or without 10 mM glucose

| SMILES | IC50 [1] [µM] | IC50 [2] [µM] |
| --- | --- | --- |
| Cc1cccc(C)c1NC(=O)Nc1cc(F)c(F)cc1C(=O)N[C@@H](CC1CCCCC1)C(=O)O [Example 118, 3-cyclohexyl-N-[2-({[(2,6-dimethylphenyl)amino]carbonyl}amino)-4,5-difluorobenzoyl]-L-alanine] | 15.7 | – |
| COc1ccc(-c2ccc(C(=O)NC3(C(=O)O)CCCCCC3)c(NC(=O)Nc3c(C)cc(C)cc3C)c2)cc1 [Example 222, 1-({[4′-(methyloxy)-3-({[(2,4,6-trimethylphenyl)amino]carbonyl}amino)-4-biphenylyl]carbonyl}amino)cycloheptanecarboxylic acid] | – | 0.024 |
| O=C(Nc1cc(-c2ccc(OC(F)(F)F)cc2)sc1C(=O)O)Nc1c(Cl)cccc1Cl [Example 434, 3-({[(2,6-dichlorophenyl)amino]carbonyl}amino)-5-{4-[(trifluoromethyl)oxy]phenyl}-2-thiophenecarboxylic acid] | 2.12 | – |
| CCCCN1CCC(NC(=O)c2cc3ccccc3cc2NC(=O)Nc2c(C)cc(C)cc2C)(C(=O)O)CC1 [Example 289, 1-Butyl-4-({[3-({[(2,4,6-trimethylphenyl)amino]carbonyl}amino)-2-naphthalenyl]carbonyl}amino)-4-piperidinecarboxylic acid] | – | 4.39 |
| Cc1cccc(C)c1NC(=O)Nc1cc(-c2ccc(O)cc2)ccc1C(=O)N[C@H](C(=O)O)C1CCCCC1 [Example 187, (2S)-Cyclohexyl({[3-({[(2,6-dimethylphenyl)amino]carbonyl}amino)-4′-hydroxy-4-biphenylyl]carbonyl}amino)ethanoic acid] | 0.034 | – |
| O=C(Nc1ccccc1Cl)Nc1cc2ccccc2cc1C(=O)N[C@@H](Cc1cccs1)C(=O)O [Example 101, N-{[3-({[(2-chlorophenyl)amino]carbonyl}amino)-2-naphthalenyl]carbonyl}-3-(2-thienyl)-L-alanine] | 2.78 | – |
| COc1ccc(-c2cc(NC(=O)Nc3c(C)cc(C)cc3C)c(C(=O)N3CCCC[C@H]3C(=O)O)s2)cc1 [Example 448, (2S)-1-{[5-[4-(methyloxy)phenyl]-3-({[(2,4,6-trimethylphenyl)amino]carbonyl}amino)-2-thienyl]carbonyl}-2-piperidinecarboxylic acid] | 0.37 | – |
| Cc1cc(F)ccc1-c1cc(C(=O)N[C@H](C(=O)O)C2CCCCC2)c(NC(=O)Nc2c(Cl)cccc2Cl)s1 [Example 421, (2S)-cyclohexyl({[2-({[(2,6-dichlorophenyl)amino]carbonyl}amino)-5-(4-fluoro-2-methylphenyl)-3-thienyl]carbonyl}amino)ethanoic acid] | 1.39 | – |
| O=C(Nc1cc(-c2ccccc2)sc1C(=O)O)Nc1c(Cl)cccc1Cl [Example 410, 3-({[(2,6-dichlorophenyl)amino]carbonyl}amino)-5-phenyl-2-thiophenecarboxylic acid] | 0.89 | – |
| O=C(O)CN(Cc1ccccc1)C(=O)c1cc2ccccc2cc1NC(=O)Nc1c(Cl)cc(Cl)cc1Cl [Example 332, N-(phenylmethyl)-N-{[3-({[(2,4,6-trichlorophenyl)amino]carbonyl}amino)-2-naphthalenyl]carbonyl}glycine] | – | 4.35 |
| CC(C)c1cc(C(=O)O)c(NC(=O)Nc2c(Cl)cccc2Cl)s1 [Example 394, 2-({[(2,6-dichlorophenyl)amino]carbonyl}amino)-5-(1-methylethyl)-3-thiophenecarboxylic acid] | – | 19.3 |
| CCc1cc(C)c(NC(=O)Nc2cc3ccccc3cc2C(=O)N[C@H](C(=O)O)C2CCCCC2)c(C)c1 [Example 460, (2S)-cyclohexyl({[3-({[(4-ethyl-2,6-dimethylphenyl)amino]carbonyl}amino)-2-naphthalenyl]carbonyl}amino)ethanoic acid] | 0.002 | – |
| COc1cc(NC(=O)Nc2c(C)cccc2Cl)c(C(=O)N[C@H](C(=O)O)C2CCCCC2)cc1OC [Example 113, (2S)-{[2-({[(2-chloro-6-methylphenyl)amino]carbonyl}amino)-4,5-dimethoxybenzoyl]amino}(cyclohexyl)acetic acid] | 7.04 | – |
| Cc1cccc(C)c1NC(=O)Nc1cc2ccccc2cc1C(=O)N[C@@H](Cc1cnc[nH]1)C(=O)O [Example 50, N-[3-({[(2,6-dimethylphenyl)amino]carbonyl}amino)-2-naphthoyl]-L-histidine trifluoroacetate] | 2.3 | – |
| O=C(Nc1cc2ccccc2cc1C(=O)N[C@H](C(=O)O)C1CCCCC1)c1ccc(-c2ccc(Cl)cc2Cl)o1 [Example 255, (2S)-cyclohexyl({[3-({[5-(2,4-dichlorophenyl)-2-furanyl]carbonyl}amino)-2-naphthalenyl]carbonyl}amino)ethanoic acid] | – | 2.6 |
| Cc1cc(C)c(CC(=O)Nc2cc3ccccc3cc2C(=O)N[C@H](C(=O)O)C2CCCCC2)c(C)c1 [Example 457, (2S)-cyclohexyl{[(3-{[(2,4,6-trimethylphenyl)acetyl]amino}-2-naphthalenyl)carbonyl]amino}ethanoic acid] | 0.064 | – |
| COc1ccc(-c2ccc(C(=O)N[C@H](C(=O)O)C(C)(C)C)c(NC(=O)Nc3c(C)cc(C)cc3C)c2)cc1 [Example 202, 3-Methyl-N-{[4′-(methyloxy)-3-({[(2,4,6-trimethylphenyl)amino]carbonyl}amino)-4-biphenylyl]carbonyl}-L-valine] | – | 0.14 |
| CCCC[C@H](NC(=O)c1nc2ccccc2cc1NC(=O)Nc1c(Cl)cccc1Cl)C(=O)O [Example 314, N-{[3-({[(2,6-dichlorophenyl)amino]carbonyl}amino)-2-quinolinyl]carbonyl}-L-norleucine] | – | 1.8 |
| Cc1cccc(Cl)c1NC(=O)Nc1cc2ccccc2cc1C(=O)N[C@@H](CCC(N)=O)C(=O)O [Example 41, N-[3-({[(2-chloro-6-methylphenyl)amino]carbonyl}amino)-2-naphthoyl]-L-glutamine] | 1.32 | – |
| Cc1cccc(C)c1NC(=O)Nc1cc2ccccc2cc1C(=O)N(CC(=O)O)CC(=O)O [Example 246, 2,2′-({[3-({[(2,6-dimethylphenyl)amino]carbonyl}amino)-2-naphthalenyl]carbonyl}imino)diacetic acid] | – | 2.12 |
| Cc1cccc(C)c1NC(=O)Nc1cc(Cl)ccc1C(=O)N[C@H](C(=O)O)C1CCCCC1 [Example 157, (2S)-({[4-chloro-2-({[(2,6-dimethylphenyl)amino]carbonyl}amino)phenyl]carbonyl}amino)(cyclohexyl)ethanoic acid] | 0.242 | – |
| COC(=O)[C@H](CC(=O)O)NC(=O)c1ccc(-c2ccc(OC)cc2)cc1NC(=O)Nc1c(C)cc(C)cc1C [Example 372, (3S)-4-(methyloxy)-3-({[4′-(methyloxy)-3-({[(2,4,6-trimethylphenyl)amino]carbonyl}amino)-4-biphenylyl]carbonyl}amino)-4-oxobutanoic acid] | – | 0.99 |
| CCc1cccc(CC)c1NC(=O)Nc1cc2ccccc2cc1C(=O)N[C@H](C(=O)O)C1CCCCC1 [Example 93, (2S)-cyclohexyl({[3-({[(2,6-diethylphenyl)amino]carbonyl}amino)-2-naphthalenyl]carbonyl}amino)ethanoic acid] | 0.59 | – |
| Cc1cccc(Cl)c1NC(=O)Nc1cc2ccccc2cc1C(=O)N[C@@H](CO)C(=O)O [Example 34, N-[3-({[(2-chloro-6-methylphenyl)amino]carbonyl}amino)-2-naphthoyl]-L-serine] | 0.64 | – |
| COc1ccc(-c2ccc(C(=O)N[C@@H](CC(=O)N(C)C)C(=O)O)c(NC(=O)Nc3c(C)cc(C)cc3C)c2)cc1 [Example 504, N^4,N^4-dimethyl-N^2-{[4′-(methyloxy)-3-({[(2,4,6-trimethylphenyl)amino]carbonyl}amino)-4-biphenylyl]carbonyl}-L-asparagine] | 0.032 | – |
| O=C(Nc1cc2ccccc2cc1C(=O)NC1(C(=O)O)CCSCC1)Nc1c(Cl)cc(Cl)cc1Cl [Example 284, 4-({[3-({[(2,4,6-Trichlorophenyl)amino]carbonyl}amino)-2-naphthalenyl]carbonyl}amino)tetrahydro-2H-thiopyran-4-carboxylic acid] | – | 2.31 |
| COc1ccccc1-c1ccc(C(=O)N[C@H](C(=O)O)C2CCCCC2)c(NC(=O)Nc2c(C)cc(C)cc2C)c1 [Example 523, (2S)-cyclohexyl({[2′-(methyloxy)-3-({[(2,4,6-trimethylphenyl)amino]carbonyl}amino)-4-biphenylyl]carbonyl}amino)ethanoic acid] | 0.008 | – |
| Cc1cccc(Cl)c1NC(=O)Nc1cc2ccccc2cc1C(=O)N[C@@H](CC1CCCCC1)C(=O)O [Example 122, N-[3-({[(2-chloro-6-methylphenyl)amino]carbonyl}amino)-2-naphthoyl]-3-cyclohexyl-L-alanine] | 2.23 | – |
